Laboratory results published in patent publication US20230346831A1, “METHODS FOR TREATING […] USING LOW DOSE CARBON MONOXIDE” (priority 2020, published 2023).

Columns and labels:
Assay in all cases: in vitro transwell migration assay
Format in all cases: cell-based, human
Conditions in all cases: 16 hours
[1] = test system: MDA-MB-231 cells
From the text: MDA-MB-231/TGL cell lines was obtained from Dr. Joan Massagué (Minn, et al, J. Clin. Invest., 115:(1), 44-55 (2005)). CM cell line was obtained from Dr. Paolo Pozzilli (S. Kobayashi et al., Oncogenesis 8, 16 (2019)). MCF7 breast cancer cells and 8988T pancreatic cancer cells were infected with viruses carrying thymidine kinase/green fluorescent protein/luciferase fusion reporter (TGL), which was obtained from Drs. Inna Serganova and Ronald Blasberg (V. Ponomarev et al., European journal of nuclear medicine and molecular imaging 31, 740-751 (2004)). GFP-positive MCF7/TGL and 8999T/TGL cells were enriched by fluorescence-activated cell sorting. H1975, lung adenocarcinoma cell line, was obtained from ATCC (Manassas, VA). […]
6.5 mm Transwell with 8.0 µm Pore Polycarbonate Membrane Insert (Corning, NY, Cat. No. 3422) was used for the cell migration assay (FIG. 1J). After 16 hours of incubation, cells migrated to the opposite side of the upper chambers were fixed with 4% paraformaldehyde, stained with 0.2% crystal violet for 30 min and counted in five fields under × 20 magnification. […] The optical density was measured at 595 nm (OD595). […]
To examine whether CO has an effect on tumor cell migration, in vitro transwell migration assays were performed. […] Cell migration through the transwell membrane along a serum gradient (Table 1) after 16 hours in the presence or absence of 250 ppm CO were measured. […]

[2] = test system: SW480 cells
From the text: (§1) MDA-MB-231/TGL cell lines was obtained from Dr. Joan Massagué (Minn, et al, J. Clin. Invest., 115:(1), 44-55 (2005)). CM cell line was obtained from Dr. Paolo Pozzilli (S. Kobayashi et al., Oncogenesis 8, 16 (2019)). MCF7 breast cancer cells and 8988T pancreatic cancer cells were infected with viruses carrying thymidine kinase/green fluorescent protein/luciferase fusion reporter (TGL), which was obtained from Drs. Inna Serganova and Ronald Blasberg (V. Ponomarev et al., European journal of nuclear medicine and molecular imaging 31, 740-751 (2004)). GFP-positive MCF7/TGL and […] cells were enriched by fluorescence-activated cell sorting. H1975, lung adenocarcinoma cell line, was obtained from ATCC (Manassas, VA). MCF7/TGL/pQ and MCF7/TGL/HA-Bcl-xL cell lines were generated by infecting MCF7/TGL cells with viruses carrying pQXCIP or pQXCIP-HA-Bcl-xL, and selected in the medium containing 0.5-1 µg/ml puromycin. Human CYP1B1cDNA (GeneScript) was transiently transfected into MCF7/TGL, MDA-MB-231/TGL, and 8988T/TGL with Lipofectamine 3000 according to the manufacture’s protocol (Invitrogen, Carlsbad, CA). Cells were treated with CO at 250 ppm for 16 hours. Control air condition was a regular cell culture incubator with 5% CO2. Cells were also treated with 30 µM Hemin (HY-19424, MedChemExpress, Monmouth Junction, NJ) in standard tissue culture incubator or 250 ppm CO.
(§2) 6.5 mm Transwell with 8.0 µm Pore Polycarbonate Membrane Insert (Corning, NY, Cat. No. 3422) was used for the cell migration assay (FIG. 1J). After 16 hours of incubation, cells migrated to the opposite side of the upper chambers were fixed with 4% paraformaldehyde, stained with 0.2% crystal violet for 30 min and counted in five fields under × 20 magnification. In parallel, cells were seeded on 24-well plates for proliferation assay. Cells for proliferation control were fixed with 4% paraformaldehyde, stained with 0.2% crystal violet for 30 min and lysed with methanol to release the crystal violet as described by M. Feoktistova, P. Geserick, & M. Leverkus, Cold Spring Harb Protoc 2016, pdb prot087379 (2016). The optical density was measured at 595 nm (OD595). To supplement heme/hemin in the transwell migration assay, 30 µM hemin (MedChemExpress, Monmouth Junction, NJ, Cat. No. HY-19424) was added to both the cell suspension in the upper chambers and the bottom wells.
(§3) To examine whether CO has an effect on tumor cell migration, in vitro transwell migration assays were performed. Various human cancer cell lines, including 3 types of breast cancer (ER^+: MCF7 cells, HER2^+: HCC1954 cells, triple-negative breast cancer (TNBC): MDA-MB-231 cells), pancreatic ductal adenocarcinoma (PDAC) (8988T cells), pancreatic neuroendocrine tumor (PNET) (CM cells), colon cancer (SW480 cells), prostate cancer (22Rv1 cells), liver cancer (HepG2 cells), and lung cancer (H1975 cells) were seeded in the upper chamber of 8-µm porous polycarbonate membranes. Cell migration through the transwell membrane along a serum gradient (Table 1) after 16 hours in the presence or absence of 250 ppm CO were measured.

[3] = test system: H1975 cells
From the text: as §1, §2, §3

[4] = test system: HepG2 cells
From the text: as §1, §2, §3

[5] = test system: 22Rv1 cells
From the text: as §1, §2, §3

[6] = test system: HCC1954 cells
From the text: as §1, §2, §3

[7] = test system: MCF7 cells
From the text: as §1, §2, §3

[8] = test system: 8988T cells
From the text: as §1, §2, §3

[9] = test system: CM cells
From the text: as §1, §2, §3

[10] = 250 ppm CO, serum gradient, vs control air
[11] = 30 µM hemin in upper and lower chambers + 250 ppm CO

| Compound | cell migration through the transwell membrane ([1]; MDA-MB-231 cells, 250 ppm CO, serum gradient, vs control air) | cell migration through the transwell membrane [2, 10] | cell migration through the transwell membrane [3, 10] | cell migration through the transwell membrane [4, 10] | cell migration through the transwell membrane [5, 10] | cell migration through the transwell membrane [6, 10] | cell migration through the transwell membrane ([7]; MCF7 cells, 250 ppm CO, serum gradient, vs control air) | cell migration through the transwell membrane [8, 10] | cell migration through the transwell membrane [9, 10] | cell migration inhibited by 250 ppm CO (reversal by hemin) ([1]; MDA-MB-231/TGL cells, 30 µM hemin in upper and lower chambers + 250 ppm CO) | cell migration inhibited by 250 ppm CO (reversal by hemin) [2, 11] | cell migration inhibited by 250 ppm CO (reversal by hemin) [3, 11] | cell migration inhibited by 250 ppm CO (reversal by hemin) [4, 11] | cell migration inhibited by 250 ppm CO (reversal by hemin) [5, 11] | cell migration inhibited by 250 ppm CO (reversal by hemin) [6, 11] | cell migration inhibited by 250 ppm CO (reversal by hemin) ([7]; MCF7/TGL cells, 30 µM hemin in upper and lower chambers + 250 ppm CO) | cell migration inhibited by 250 ppm CO (reversal by hemin) [8, 11] | cell migration inhibited by 250 ppm CO (reversal by hemin) [9, 11] |
| --- | --- | --- | --- | --- | --- | --- | --- | --- | --- | --- | --- | --- | --- | --- | --- | --- | --- | --- |
| [C-]#[O+] [CO, Carbon monoxide] | significantly reduced | significantly reduced | significantly reduced | significantly reduced | significantly reduced | significantly reduced | significantly reduced | significantly reduced | significantly reduced |  |  |  |  |  |  |  |  |  |
| Hemin [reference compound] |  |  |  |  |  |  |  |  |  | significantly reversed | significantly reversed | significantly reversed | significantly reversed | significantly reversed | significantly reversed | significantly reversed | significantly reversed | significantly reversed |
